Results on nine molecules are retold here after patent US12492173B2, “Herbicidal substituted N-tetrazolyl aryl carboxamides” (Bayer Aktiengesellschaft, priority 2019, dated 2025).

Common to all, as to format: in vivo
For one test, the system named is Amaranthus retroflexus. Kind of test: Pre-emergence herbicidal action, AMARE. As to conditions: dosage 320 g/ha, scored visually after 3 weeks vs untreated controls (100% = plants have died). The essentials:
(§1)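 Pre-emergence, sandy loam soil; WP/EC formulation applied to covering soil surface, 600–800 l/ha water + 0.2% wetter; greenhouse, 3 wk; visual % damage vs untreated (0–100%).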

For test [1], the system named is Polygonum convolvulus. The test can be described thus: Pre-emergence herbicidal action, POLCO. As to conditions: dosage 320 g/ha, scored visually after 3 weeks vs untreated controls (100% = plants have died). Put shortly:
as §1

A further test deals with Abutilon theophrasti. Kind of test: Pre-emergence herbicidal action, ABUTH. More on the design: key to Herbicidal action against ABUTH: % activity: 100 = plants have died, 0 = like control plants. Particulars: for herbicidal activity ABUTH: dosage 320 g/ha, scored visually after 3 weeks vs untreated controls (100% = plants have died). Put shortly: as §1
The test system of another test is Pharbitis purpurea. Kind of test: Pre-emergence herbicidal action, PHBPU. As to conditions: dosage 320 g/ha, scored visually after 3 weeks vs untreated controls (100% = plants have died). The essentials:
as §1

Another test deals with Echinochloa crus-galli. Kind of test: Post-emergence herbicidal action, ECHCG. Also noted: key: % herbicidal action vs untreated; 100 = plants died, 0 = like control. Put shortly: (§2)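 Percent herbicidal effect was rated visually about 3 weeks after treatment, relative to untreated plants (0% = like control, 100% = dead). Compounds, formulated as WP or EC, went on as aqueous spray (600–800 l/ha, 0.2% wetting agent) to one-leaf-stage plants 2–3 weeks post-sowing in sandy loam.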

Test [2] concerns Polygonum convolvulus. The test can be described thus: Post-emergence herbicidal action, POLCO. Put shortly:
as §2

The subject of the next test is Matricaria inodora. Kind of test: Post-emergence herbicidal action, MATIN. Also noted: key: % herbicidal action vs untreated; 100 = plants died, 0 = like control. The essentials: as §2
The mark [3] stands for this setting: comparative experiment, post-emergence, 20 g of a.i./ha.

Structures are written as SMILES.

In the case of `Cn1nnnc1NC(=O)c1ccc(C(F)(F)F)c(CSC2CC2)c1Cl` [Example 1-302], the “herbicidal activity AMARE” value in the test with Amaranthus retroflexus came to 100%. Moreover, the “herbicidal activity POLCO” value with Polygonum convolvulus [1] was determined as 100%. Also, in the test with Abutilon theophrasti, the “herbicidal activity ABUTH” value was 100%. In the test on Pharbitis purpurea, the “herbicidal activity PHBPU” value was 100%. Besides, the “herbicidal action ECHCG” value with Echinochloa crus-galli (post-emergence, dosage 80 g/ha) was 100%. Further, the “herbicidal action POLCO” value in the test with Polygonum convolvulus [2] (post-emergence, dosage 80 g/ha) is 100%. Further, the “herbicidal action MATIN” value in the test with Matricaria inodora (post-emergence, dosage 80 g/ha) was determined as 90%.
Regarding `CSCc1c(C(F)(F)F)ccc(C(=O)Nc2nnnn2C)c1C` [Example 1-83], in the test on Amaranthus retroflexus, the “herbicidal activity AMARE” value worked out at 100%. In the test with Polygonum convolvulus [1], the “herbicidal activity POLCO” value is given as 100%. The “herbicidal activity ABUTH” value in the test with Abutilon theophrasti came out at 100%. In addition, the “herbicidal activity PHBPU” value with Pharbitis purpurea was determined as 80%. The “herbicidal action ECHCG” value in the test with Echinochloa crus-galli (post-emergence, dosage 80 g/ha) was 90%. Further, the “herbicidal action POLCO” value in the test with Polygonum convolvulus [2] (post-emergence, dosage 80 g/ha) was 90%. Moreover, the “herbicidal action MATIN” value in the test with Matricaria inodora (post-emergence, dosage 80 g/ha) was 100%.
With `Cn1nnnc1NC(=O)c1ccc(C(F)(F)F)c(CSCC2CC2)c1Cl` [Example 1-314], the “herbicidal activity AMARE” value with Amaranthus retroflexus stood at 100%. In addition, in the test with Polygonum convolvulus [1], the “herbicidal activity POLCO” value was 100%. The “herbicidal activity ABUTH” value in the test with Abutilon theophrasti is on record as 100%. Also, the “herbicidal activity PHBPU” value with Pharbitis purpurea is on record as 90%. The “herbicidal action ECHCG” value in the test on Echinochloa crus-galli (post-emergence, dosage 80 g/ha) was found to be 100%. In the test with Polygonum convolvulus [2] (post-emergence, dosage 80 g/ha), the “herbicidal action POLCO” value was found to be 100%. In addition, the “herbicidal action MATIN” value in the test with Matricaria inodora (post-emergence, dosage 80 g/ha) turned out to be 100%.
For `CCCn1nnnc1NC(=O)c1ccc(C(F)F)c(CS(C)(=O)=O)c1Cl` [Example 3-322], in the test with Amaranthus retroflexus, the “herbicidal activity AMARE” value is given as 100%. Besides, in the test with Polygonum convolvulus [1], the “herbicidal activity POLCO” value stood at 100%. Also, in the test on Abutilon theophrasti, the “herbicidal activity ABUTH” value is 100%. The “herbicidal activity PHBPU” value with Pharbitis purpurea is recorded as 90%. Moreover, in the test with Echinochloa crus-galli (Dosage 80 g/ha), the “herbicidal action ECHCG” value is given as 100. The “herbicidal action POLCO” value in the test with Polygonum convolvulus [2] (Dosage 80 g/ha) was determined as 80. Moreover, the “herbicidal action MATIN” value with Matricaria inodora (Dosage 80 g/ha) was 90.
Take `CCCn1nnnc1NC(=O)c1ccc(C(F)F)c(CSCC)c1Cl` [Example 3-323]: in the test with Amaranthus retroflexus, the “herbicidal activity AMARE” value is 100%. Also, in the test with Polygonum convolvulus [1], the “herbicidal activity POLCO” value was 100%. In addition, in the test with Abutilon theophrasti, the “herbicidal activity ABUTH” value was found to be 100%. Besides, in the test on Pharbitis purpurea, the “herbicidal activity PHBPU” value turned out to be 100%. Further, in the test with Echinochloa crus-galli (Dosage 80 g/ha), the “herbicidal action ECHCG” value is on record as 100. In the test with Polygonum convolvulus [2] (Dosage 80 g/ha), the “herbicidal action POLCO” value amounted to 80. For the same molecule, in the test on Matricaria inodora (Dosage 80 g/ha), the “herbicidal action MATIN” value amounted to 90.
Take `Cn1nnnc1NC(=O)c1ccc(C(F)F)c(CS(C)(=O)=O)c1Cl` [Example 1-322]: the “herbicidal activity AMARE” value in the test with Amaranthus retroflexus is on record as 100%. Further, the “herbicidal activity POLCO” value with Polygonum convolvulus [1] amounted to 100%. Also, the “herbicidal activity ABUTH” value in the test on Abutilon theophrasti was 100%. The “herbicidal activity PHBPU” value in the test on Pharbitis purpurea was found to be 100%. In addition, the “herbicidal action ECHCG” value in the test on Echinochloa crus-galli (post-emergence, dosage 80 g/ha) is reported as 100%. The “herbicidal action POLCO” value in the test on Polygonum convolvulus [2] (post-emergence, dosage 80 g/ha) came to 90%. Besides, the “herbicidal action MATIN” value in the test on Matricaria inodora (post-emergence, dosage 80 g/ha) worked out at 80%.
`CCn1nnnc1NC(=O)c1ccc(C(F)(F)F)c(C[S+]([O-])CC)c1Br` (stereo not drawn) [Example 2-384]: in the test on Amaranthus retroflexus, the “herbicidal activity AMARE” value is recorded as 100%. In the test on Polygonum convolvulus [1], the “herbicidal activity POLCO” value was 90%. Also, the “herbicidal activity ABUTH” value in the test with Abutilon theophrasti was found to be 100%. In addition, the “herbicidal activity PHBPU” value in the test on Pharbitis purpurea came out at 90%. The “herbicidal action ECHCG” value with Echinochloa crus-galli (post-emergence, dosage 80 g/ha) was determined as 90%. For the same molecule, in the test with Polygonum convolvulus [2] (post-emergence, dosage 80 g/ha), the “herbicidal action POLCO” value was found to be 80%. Moreover, the “herbicidal action MATIN” value with Matricaria inodora (post-emergence, dosage 80 g/ha) is 100%.
Turning to `CC[S+]([O-])Cc1c(C(F)(F)F)ccc(C(=O)Nc2nnnn2C)c1Br` (racemic) [Example 1-384], the “herbicidal activity AMARE” value with Amaranthus retroflexus is listed as 100%. Moreover, the “herbicidal activity POLCO” value in the test with Polygonum convolvulus [1] stood at 90%. Further, in the test on Abutilon theophrasti (comparative experiment, 80 g of a.i./ha), the “Herbicidal action against ABUTH” value is recorded as 100. In addition, the “herbicidal activity ABUTH” value with Abutilon theophrasti was 100%. For the same molecule, in the test with Pharbitis purpurea, the “herbicidal activity PHBPU” value turned out to be 90%. Besides, the “Herbicidal action against ECHCG” value in the test with Echinochloa crus-galli (setting [3]) amounted to 90. In the test on Echinochloa crus-galli (post-emergence, dosage 80 g/ha), the “herbicidal action ECHCG” value is recorded as 100%. Besides, the “herbicidal action POLCO” value in the test with Polygonum convolvulus [2] (post-emergence, dosage 80 g/ha) came out at 90%. For the same molecule, the “Herbicidal action against MATIN” value in the test with Matricaria inodora (setting [3]) stood at 90. For the same molecule, the “herbicidal action MATIN” value in the test on Matricaria inodora (post-emergence, dosage 80 g/ha) was 90%.
For the molecule `CCCn1nnnc1NC(=O)c1ccc(C(F)(F)F)c(CS(C)(=O)=O)c1SC` [Example 3-163], in the test with Amaranthus retroflexus, the “herbicidal activity AMARE” value was 100%. For the same molecule, the “herbicidal activity POLCO” value in the test on Polygonum convolvulus [1] is given as 80%. Besides, the “herbicidal activity ABUTH” value with Abutilon theophrasti came to 100%. Besides, the “herbicidal activity PHBPU” value in the test with Pharbitis purpurea was determined as 80%. For the same molecule, in the test with Echinochloa crus-galli (Dosage 80 g/ha), the “herbicidal action ECHCG” value was found to be 90. The “herbicidal action POLCO” value in the test on Polygonum convolvulus [2] (Dosage 80 g/ha) was found to be 90. In the test with Matricaria inodora (Dosage 80 g/ha), the “herbicidal action MATIN” value came to 90.
